From US7879884B2, “Aryl pyridyl sulfonamide derivatives, their manufacture and use as pharmaceutical agents” (Hoffmann-La Roche Inc., priority 2007, dated 2011)

Tested on: HCT 116 cells
Test: CellTiter-Glo Luminescent Cell Viability Assay in HCT 116 cells
Type: cell-based
Details: HCT 116 human colon carcinoma cells, 5 days (120 h) incubation, CellTiter-Glo luminescence, triplicate
From the text: CellTiter-Glo™ Assay in HCT 116 Cells
The CellTiter-Glo™ Luminescent Cell Viability Assay (Promega) is a homogeneous method of determining the number of viable cells in culture based on quantitation of the ATP present, which signals the presence of metabolically active cells.
HCT 116 cells (human colon carcinoma, ATCC-No. CCI-247) were cultivated in RPMI 1640 medium with GlutaMAX™ I (Invitrogen, Cat-No. 61870-010), 5% Fetal Calf Serum (FCS, Sigma Cat-No. F4135 (FBS)); 100 Units/ml penicillin/[…] streptomycin (=Pen/Strep from Invitrogen Cat. No. 15140).
For the assay the cells were seeded in 384 well plates, 1000 cells per well, in the same medium. The next day the test compounds were added in various concentrations ranging from 30 μM to 0.0015 μM (10 concentrations, 1:3 diluted). After 5 days the CellTiter-Glo™ assay was done according to the instructions of the manufacturer (CellTiter-Glo™ Luminescent Cell Viability Assay, from Promega). In brief: the cell-plate was equilibrated to room temperature for approximately 30 minutes and than the CellTiter-Glo™ reagent was added. The contents were carefully mixed for 15 minutes to induce cell lysis. After 45 minutes the luminescent signal was measured in Victor 2, (scanning multiwell spectrophotometer, Wallac).
• Medium: RPMI 1640 with GlutaMAX™ I (Invitrogen, Cat-Nr. 61870), 5% FCS (Sigma Cat.-No. F4135), Pen/Strep (Invitrogen, Cat No. 15140). • HCT116 (ATCC-No. CCI-247): 1000 cells in 60 μl per well of 384 well plate (Greiner 781098, μClear-plate white) • After seeding incubate plates 24 h at 37° C., 5% CO2 2nd. day: Induction (Treatment with Compounds, 10 Concentrations):
In order to achieve a final concentration of 30 μM as highest concentration 3.5 μl of 10 mM compound stock solution were added directly to 163 μl media. Then step e) of the dilution procedure described below, was followed.

Row | Compound | IC50 [µM]
1 | COc1ccccc1-c1ncc(S(=O)(=O)NC(=O)c2ccc(F)cc2C(F)(F)F)cc1C [Example 1-13, 6-(2-Methoxy-phenyl)-5-methyl-pyridine-3-sulfonic acid 4-fluoro-2-trifluoromethyl-benzoylamide] | 0.5 to 7.5
2 | COc1cc(Cl)ccc1C(=O)NS(=O)(=O)c1ccc(-c2c(C)cc(C)cc2C)nc1 [Example 1-5, 6-(2,4,6-Trimethyl-phenyl)-pyridine-3-sulfonic acid 4-chloro-2-methoxy-benzoylamide] | 0.5 to 7.5
3 | COc1cc(Cl)ccc1C(=O)NS(=O)(=O)c1ccc(-c2c(OC)cccc2OC)nc1 [Example 1-4, 6-(2,6-Dimethoxy-phenyl)-pyridine-3-sulfonic acid 4-chloro-2-methoxy-benzoylamide] | 0.5 to 7.5
4 | CS(=O)(=O)c1ccccc1-c1ccc(S(=O)(=O)NC(=O)c2ccc(Cl)cc2Cl)cn1 [Example 1-8, 6-(2-Methanesulfonyl-phenyl)-pyridine-3-sulfonic acid 2,4-dichloro-benzoylamide] | 2.94
5 | Cc1cc(S(=O)(=O)NC(=O)c2ccc(F)cc2Cl)cnc1-c1ccccc1Cl [Example 1-15, 6-(2-Chloro-phenyl)-5-methyl-pyridine-3-sulfonic acid 2-chloro-4-fluoro-benzoylamide] | 0.5 to 7.5
6 | COc1cccc(F)c1-c1ccc(S(=O)(=O)NC(=O)c2ccc(Cl)cc2Cl)cn1 [Example 1-10, 6-(2-Fluoro-6-methoxy-phenyl)-pyridine-3-sulfonic acid 2,4-dichloro-benzoylamide] | 0.5 to 7.5
7 | COc1cc(Cl)ccc1C(=O)NS(=O)(=O)c1ccc(-c2c(C)cccc2C)nc1 [Example 1-6, 6-(2,6-Dimethyl-phenyl)-pyridine-3-sulfonic acid 4-chloro-2-methoxy-benzoylamide] | 0.5 to 7.5
8 | O=C(NS(=O)(=O)c1ccc(-c2ccc(C(F)(F)F)cc2C(F)(F)F)nc1)c1ccc(Cl)cc1Cl [Example 1-9, 6-(2,4-Bis-trifluoromethyl-phenyl)-pyridine-3-sulfonic acid 2,4-dichloro-benzoylamide] | 0.5 to 7.5
9 | COc1ccccc1-c1ncc(S(=O)(=O)NC(=O)c2ccc(Cl)cc2Cl)cc1C [Example 1-12, 6-(2-Methoxy-phenyl)-5-methyl-pyridine-3-sulfonic acid 2,4-dichloro-benzoylamide] | 3.98
10 | COc1cccc(OC)c1-c1ccc(S(=O)(=O)NC(=O)c2ccc(F)cc2Cl)cn1 [Example 1-2, 6-(2,6-Dimethoxy-phenyl)-pyridine-3-sulfonic acid 2-chloro-4-fluoro-benzoylamide] | 0.5 to 7.5
11 | COc1cccc(OC)c1-c1ccc(S(=O)(=O)NC(=O)c2ccc(Cl)cc2Cl)cn1 [Example 1-1, 6-(2,6-Dimethoxy-phenyl)-pyridine-3-sulfonic acid 2,4-dichloro-benzoylamide] | 1.43

Further lines, results first:

Row | IC50 [µM] | Compound
12 | 0.5 to 7.5 | COc1cccc(OC)c1-c1ccc(S(=O)(=O)NC(=O)c2ccc(F)cc2C(F)(F)F)cn1 [Example 1-3, 6-(2,6-Dimethoxy-phenyl)-pyridine-3-sulfonic acid 4-fluoro-2-trifluoromethyl-benzoylamide]
13 | 0.5 to 7.5 | Cc1cc(S(=O)(=O)NC(=O)c2ccc(F)cc2C(F)(F)F)cnc1-c1ccccc1Cl [Example 1-14, 6-(2-Chloro-phenyl)-5-methyl-pyridine-3-sulfonic acid 4-fluoro-2-trifluoromethyl-benzoylamide]
14 | 0.5 to 7.5 | CSc1ccccc1-c1ccc(S(=O)(=O)NC(=O)c2ccc(Cl)cc2Cl)cn1 [Example 1-7, 6-(2-Methylsulfanyl-phenyl)-pyridine-3-sulfonic acid 2,4-dichloro-benzoylamide]
15 | 0.5 to 7.5 | COc1cc(Cl)ccc1C(=O)NS(=O)(=O)c1ccc(-c2ccccc2NS(C)(=O)=O)nc1 [Example 1-11, 6-(2-Methanesulfonylamino-phenyl)-pyridine-3-sulfonic acid 4-chloro-2-methoxy-benzoylamide]
16 | 0.5 to 7.5 | COc1cc(Cl)ccc1C(=O)NS(=O)(=O)c1cnc(-c2ccccc2Cl)c(C)c1 [Example 1-16, 6-(2-Chloro-phenyl)-5-methyl-pyridine-3-sulfonic acid 4-chloro-2-methoxy-benzoylamide]
